Twelve compounds from patent publication US20070203224A1, “SMALL-MOLECULES FOR TREATING CANCER AND ABNORMAL CELL PROLIFERATION DISORDERS” (University of Southern California, priority 2006, published 2007) can be followed below.

Each structure is given as a SMILES string. A value given as a limit tells only on which side of the number the result lay.

Data set [1] deals with NIH3T3 mouse fibroblast cells. Put plainly: MTT assay (cytotoxicity). It counts as cell-based. To be noted: read-out: Anticancer Activity (IC50). The method, then:
[The procedure below names another organism; the source lists this organism under the same test.] (§1) The cytotoxicity of the several representative compounds have been evaluated using MTT assay. Briefly, cells were seeded in 96-well microtiter plates (HCT16 p53+/+ (wild type), HCTp53−/− (p53 negative) colon cancer cells and MD-MBA-435 (p53 mutant) breast cancer cells at 4,000 cells/well) and allowed to attach. Cells were subsequently treated with a continuous exposure to the corresponding drug for 72 hours. A 3-(4,5-dimethylthiazol-2-yl)-2,5-diphenyltetrazolium bromide solution (at a final concentration of 0.5 mg/mL) was added to each well, and cells were incubated for 4 hours at 37° C. After removal of the medium, DMSO was added and the absorbance was read at 570 nm. All assays were done in triplicate. The IC50 was then determined for each drug from a plot of log (drug concentration) versus percentage of cell kill.
For orientation: Tetrazolium dyes change colour on reduction, which living cells bring about.

Data set [2] relates to HCTp53−/− (p53 negative) colon cancer cells. Put plainly: MTT assay (cytotoxicity). It counts as cell-based. Conditions: Homo sapiens, 72 hours exposure, read-out: Anticancer Activity (IC50). The method, then:
as §1

The subject of data set [3] is NIH 189 mouse fibroblast cells. The experiment in a line: MTT assay (cytotoxicity). It is filed as cell-based. To be noted: read-out: Anticancer Activity (IC50). The procedure: [The procedure below names another organism; the source lists this organism under the same test.] as §1
The subject of data set [4] is MCF7 breast cells. The experiment in a line: MTT assay (cytotoxicity). It is filed as cell-based. To be noted: Homo sapiens, read-out: Anticancer Activity (IC50). The method, then: [The procedure below names another cell line; the source lists this cell line under the same test.] as §1
For data set [5], the system named is MD-MBA-435 (p53 mutant) breast cancer cells. Put plainly: MTT assay (cytotoxicity). It is filed as cell-based. Conditions: Homo sapiens, 72 hours exposure, read-out: Anticancer Activity (IC50). The method, then: as §1
Data set [6] has as its system HCT16 p53+/+ (wild type) colon cancer cells. The experiment in a line: MTT assay (cytotoxicity). It counts as cell-based. Conditions: Homo sapiens, 72 hours exposure, read-out: Anticancer Activity (IC50). The method, then:
as §1

In data set [7] the test system is HCT116p53+/+ cells. Put plainly: Cell cycle analysis by propidium iodide DNA staining. It counts as cell-based, human. Conditions: 1 μM. The method, then: Cell cycle perturbations induced by the representative compounds were analyzed by propidium iodide DNA staining. […] At the end of each treatment time, cells were collected and washed with PBS after a gentle centrifugation at 200×g for 5 minutes. Cells were thoroughly resuspended in 0.5 mL of PBS and fixed in 70% ethanol for at least 2 hours at 4° C. Ethanol-suspended cells were then centrifuged at 200×g for 5 minutes and washed twice in PBS to remove residual ethanol. For cell cycle analysis, the pellets were suspended in 1 mL of PBS containing 0.02 mg/mL of propidiumiodide, 0.5 mg/mL of DNase-free RNase A and 0.1% of Triton X-100 and incubated at 37° C. for 30 minutes. Cell cycle profiles were obtained using a FACScan flowcytometer (Becton Dickinson, San Jose, Calif.) and data were analyzed by ModFit LT software (Verity Software House, Inc., Topsham, Me.).

In data set [8] the test system is MDA-MB-435 cells. Put plainly: Drug treatment of tumor xenografts in athymic nude mice. It is filed as in vivo. The method, then:
50 male athymic nude (nu/nu) mice (Charles River Laboratories, Wilmington, USA) were used for in vivo testing. The animals were fed ad libitum and kept in air-conditioned rooms at 20±2° C. with a 12 h light-dark period. Animal care and manipulation were in agreement with the University of Southern California (USC) institutional guidelines, which are in accordance with the Guidelines for the Care and Use of Laboratory Animals.
MDA-MB-435 cells from in vitro cell culture were inoculated s.c. in both flanks of athymic nude mice (2×10^6 cells/flank) under aseptic conditions. Tumor growth was assessed by biweekly measurement of tumor diameters with a Vernier caliper (length×width). Tumor weight was calculated according to the formula: TW (mg)=tumor volume (mm^3)=d^2×D/2, where d and D are the shortest and longest diameters, respectively. Cells were allowed to grow to an average volume of 100 mm^3. Animals were then randomly assigned for control and treatment groups to receive control vehicle or CT19 (10 and 20 mg/kg, dissolved in sesame oil) via i.p. injections once a day for 5 days. Treatment of each animal was based on individual body weight. After 5-day treatment, the tumor volumes in each group were measured once a week for four weeks. Treated animals were checked daily for treatment toxicity/mortality.
Assays were set up in triplicates and the results were expressed as means±SD. Statistical analysis and P-value determination were done by two-tailed paired t test with a confidence interval of 95% for determination of the significance differences between treatment groups. P<0.05 were considered to be significant. ANOVA was used to test for significance among groups. The SAS statistical software package (SAS institute) was used for statistical analysis.
The in vivo efficacy of CT19 was evaluated in nude mice inoculated with human breast MDA-MB-435 cells. Animals were treated with a daily i.p. injections of saline (controls) and CT19 at 10 mg/kg or 20 mg/kg. After five-days of dosing, the drug treatment was discontinued and the animals were monitored […].

Data set [9] relates to panel of human cancer cell lines. Put plainly: Anticancer activity in a panel of human cancer cell lines. Conditions: result in words. It is filed as cell-based. The procedure:
Anticancer activities and cell cycle perturbations induced by a number of representative compounds have been evaluated using MTT and cell cycle analysis assays.
as §1

Setting [10] is: 10 mg/kg or 20 mg/kg daily i.p. for five days.

What is called IC50 is the concentration needed to halve the response being measured. On to `C=C1C(=O)O[C@@H](c2ccccc2)C1c1ccccc1` (stereo in doubt) [CT14, (4S,5R)-3-methylene-4,5-diphenyl-dihydrofuran-2(3H)-one], for which the IC50 in data set [1] was determined as 2 µM; in data set [2] it was 8 ± 1 µM; in data set [3] it was 1 µM; in data set [4], 2 µM; in [5], 2 ± 2 µM; in data set [6], 2 ± 1 µM. Further, the G2/M arrest result in data set [7] was “approximately 75%”. For the same compound, the figures for the “% cells in G0/G1” value in [7] (after 12 h) and in data set [7] (after 24 h) were 11.9% and 12.6%, respectively. Further, the “% cells in G2/M” value in [7] (after 12 h) stood at 75.8%; in [7] (after 24 h), 74.5%. Moreover, the “% cells in S” value in data set [7] (after 12 h) amounted to 12.4%; in data set [7] (after 24 h), 12.8%.

As for `C=C(C(=O)OC)[C@H](c1ccccc1)[C@@H](O)c1ccc(C#N)cc1` (stereo in doubt) [CT21, (3S,4R)-methyl 4-(4-cyanophenyl)-4-hydroxy-2-methylene-3-phenylbutanoate], the IC50 in data set [2] is 13 ± 2 µM; in [4], 3 µM; in data set [5], 8 ± 2 µM; in [6] it was 2 ± 1 µM.

For the compound `C=C1C(=O)O[C@@H](c2ccccc2)[C@@H]1C` [CT10], the IC50 in [2] stood at 23 ± 2 µM; in [5], 5 ± 3 µM; in data set [6], 1 ± 1 µM.

`C=C1C(=O)O[C@@H](c2ccc([N+](=O)[O-])cc2)[C@H]1c1ccc(OC)cc1` [CT11]: the IC50 amounted to 9 ± 5 µM in [2], 3 µM in data set [4], 2 ± 2 µM in data set [5] and 2 ± 1 µM in data set [6].

Take `C=C1C(=O)O[C@@H](c2ccc([N+](=O)[O-])cc2)[C@@H]1c1ccc(C)cc1` [CT12]: the IC50 in [2] was determined as 7 ± 5 µM; in [4] it was 6 µM; in data set [5] it was 3 ± 2 µM; in data set [6], 4 ± 1 µM.

As for `C=C1C(=O)O[C@@H](c2ccccc2)[C@H]1c1ccccc1` [CT13, (4S,5R)-3-methylene-4,5-diphenyl-dihydrofuran-2(3H)-one], the IC50 in data set [2] was 11 ± 2 µM; in data set [5], 2 ± 2 µM; in data set [6], 3 ± 3 µM.

For `C=C1C(=O)O[C@@H](c2ccc([N+](=O)[O-])cc2)[C@H]1c1ccc(C)cc1` [CT15], the IC50 in data set [2], in data set [5] and in [6] was over 20 µM each time.

Consider `C=C1C(=O)O[C@@H](c2ccc([N+](=O)[O-])cc2)[C@H]1c1ccc(Cl)cc1` [CT16], for which the IC50 is 18 ± 1 µM in [2], under 1 µM in [4], 3 ± 2 µM in data set [5] and 4 ± 2 µM in data set [6].

As for `C=C1C(=O)O[C@@H](c2cc(OC)c(OC)c(OC)c2-c2cc(OC)c(OC)c(OC)c2)[C@H]1C` [CT19], the IC50 in [2] came to 4 µM; in data set [4] it was 4 µM; in data set [5], 5 µM; in data set [6], 1 ± 1 µM. For the same compound, the Apparent toxicity result in [8] (setting [10]) is given as “without apparent toxicity”. For the same compound, the Tolerability result in data set [8] (setting [10]) is “well tolerated”. For the same compound, the “Tumor burden in breast xenografts” value in [8] (setting [10]) was “significantly reduced tumor burden”. Besides, the “Tumor growth (tumor weight)” value in data set [8] (20 mg/kg daily i.p. for five days, monitored five weeks, p<0.05) was “significantly reduced tumor growth”.

In the case of `COc1cc(-c2c(C3OC(=O)C(C)=C3C)cc(OC)c(OC)c2OC)cc(OC)c1OC` (stereo not shown) [CT20], the IC50 in data set [2] was over 20 µM; in [4] it was over 20 µM; in data set [5] it was over 20 µM; in data set [6], 3 µM.

As to `C=C(C(=O)OC)[C@@H](c1ccccc1)[C@H](O)c1ccc([N+](=O)[O-])cc1` [CT22], the IC50 was found to be 3.5 µM in [1]; 12 ± 4 µM in data set [2]; 3 µM in [3]; 3 µM in data set [4]; 7 ± 5 µM in [5]; 1 ± 1 µM in data set [6].

`COC(=O)/C(=C/c1ccccc1)CS(=O)(=O)c1ccc(C)cc1` [CT23, (Z)-methyl 3-phenyl-2-(tosylmethyl)acrylate]: the IC50 in data set [2] was 5 µM; in [4], 15 µM; in [5] it was 6 ± 3 µM; in [6] it was 2 ± 2 µM. Moreover, the “Anticancer activity in a panel of human cancer cell lines” value in data set [9] is “potent anticancer activity at low micromolar concentration”.
